The subject of the data set is BALB/c mice. The experiment in a line: In vivo safety: ALAT and ASAT from blood, body weight. The arrangement: species or system mouse. As to the method:
For in vivo studies, the pLuc was mixed with the CPP at CR2 in MilliQ water, wherein the dose per animal was 2.5 mg/kg. After 30 min of incubation at room temperature, glucose was added to the complexes to obtain an isotonic solution with a final injection volume of 336 µL, which was immediately injected intravenously via the tail vein.
In vivo safety was evaluated by measuring the alanine aminotransferase and the aspartate aminotransferase levels from the blood of mice injected with nanoparticles formed between NF55 analogues and pDNA. Additionally, the mice were weighed preinjection with the CPP-pDNA complexes and prior to sacrifice. […]
1 – Alanine aminotransferase 2 – Aspartate aminotransferase

Setting [1] is: blood of mice injected i.v. with CPP/pDNA nanoparticles, pLuc 2.5 mg/kg, CR2.

For `CCCCCCCCCCCCCCCCCC(=O)N[C@@H](C)C(=O)NCC(=O)N[C@@H](Cc1ccc(O)cc1)C(=O)N[C@@H](CC(C)C)C(=O)N[C@@H](CC(C)C)C(=O)NCC(=O)NCCC[C@H](N)C(=O)N[C@H](C(=O)N[C@@H](CC(N)=O)C(=O)N[C@@H](CC(C)C)C(=O)N[C@@H](CCCCN)C(=O)N[C@@H](C)C(=O)N[C@@H](CC(C)C)C(=O)N[C@@H](C)C(=O)N[C@@H](C)C(=O)N[C@@H](CC(C)C)C(=O)N[C@@H](C)C(=O)N[C@@H](CCCCN)C(=O)N[C@@H](C)C(=O)N[C@H](C(=O)N[C@@H](CC(C)C)C(N)=O)[C@@H](C)CC)[C@@H](C)CC` [NF55], under setting [1], the “ALAT (alanine aminotransferase)” value was 629 and the “ASAT (aspartate aminotransferase)” value worked out at 184. Further, the Pre-injection weight (weight of mice before injecting with CPP/pDNA nanoparticles) turned out to be 26.96 grams. This compound displayed a Post-injection weight (weight of mice before sacrificing for ex vivo tissue analysis) of 25.35 grams.
